In article PMC7397336, “5-(4H)-Oxazolones and Their Benzamides as Potential Bioactive Small Molecules” (Molecules, 2020):
Marks after values point to notes of the source that are not given here.

Columns and labels:
[1] = Inhibition of linoleic acid lipid peroxidation (AAPH)
Source text: Azo compounds, like AAPH, generating free radicals through spontaneous thermal decomposition are useful for in vitro studies of free radical production. Production of conjugated diene hydroperoxide by oxidation of sodium linoleate in an aqueous solution is monitored at 234 nm. This assay can be used to follow oxidative changes and to understand the contribution of each tested compound. […] It seems that the presence of moiety Ar (Scheme 1) is mainly correlated with the antioxidant result. The nature of the heteroatom O/S in Ar substituent in the 5-membered oxazolone ring (compounds 2c and 2e) influences the biological response. The replacement of the thienyl group in 2c by a furyl group (2e) leads to a 31% decrease of the antioxidant ability.
Each in vitro experiment was performed at least in triplicate and the standard deviation of absorbance was less than 10% of the mean. For the in vitro assays, a stock solution (1% DMSO in the appropriate buffer with the tested compound diluted under sonification) was prepared from which several dilutions were made with the appropriate buffer.
The AAPH-induced oxidation of linoleic acid measures the ability of an antioxidant to prevent oxidation of linoleic acid sodium salt induced by alkylperoxyl radicals, generated from the water soluble azo compound 2,2′-azobis(2-amidinopropane) dihydrochloride (AAPH). The assay was performed according to our previous publications. Trolox was used as reference compound.

soybean lipoxygenase = molecular target: T1, soybean lipoxygenase (Glycine max, UniProt P08170); assay: Soybean lipoxygenase inhibition study; assay type: biochemical; settings: for inhibition at 100 µM: read-out: LOX % inhibition 100 μM; for IC50: soybean lipoxygenase, sodium linoleate 0.1 mM, read-out: LOX IC50
T1 construct: purchased Sigma Chemical, Co. (St. Louis, MO, USA)
T1 sequence (P08170 1-839): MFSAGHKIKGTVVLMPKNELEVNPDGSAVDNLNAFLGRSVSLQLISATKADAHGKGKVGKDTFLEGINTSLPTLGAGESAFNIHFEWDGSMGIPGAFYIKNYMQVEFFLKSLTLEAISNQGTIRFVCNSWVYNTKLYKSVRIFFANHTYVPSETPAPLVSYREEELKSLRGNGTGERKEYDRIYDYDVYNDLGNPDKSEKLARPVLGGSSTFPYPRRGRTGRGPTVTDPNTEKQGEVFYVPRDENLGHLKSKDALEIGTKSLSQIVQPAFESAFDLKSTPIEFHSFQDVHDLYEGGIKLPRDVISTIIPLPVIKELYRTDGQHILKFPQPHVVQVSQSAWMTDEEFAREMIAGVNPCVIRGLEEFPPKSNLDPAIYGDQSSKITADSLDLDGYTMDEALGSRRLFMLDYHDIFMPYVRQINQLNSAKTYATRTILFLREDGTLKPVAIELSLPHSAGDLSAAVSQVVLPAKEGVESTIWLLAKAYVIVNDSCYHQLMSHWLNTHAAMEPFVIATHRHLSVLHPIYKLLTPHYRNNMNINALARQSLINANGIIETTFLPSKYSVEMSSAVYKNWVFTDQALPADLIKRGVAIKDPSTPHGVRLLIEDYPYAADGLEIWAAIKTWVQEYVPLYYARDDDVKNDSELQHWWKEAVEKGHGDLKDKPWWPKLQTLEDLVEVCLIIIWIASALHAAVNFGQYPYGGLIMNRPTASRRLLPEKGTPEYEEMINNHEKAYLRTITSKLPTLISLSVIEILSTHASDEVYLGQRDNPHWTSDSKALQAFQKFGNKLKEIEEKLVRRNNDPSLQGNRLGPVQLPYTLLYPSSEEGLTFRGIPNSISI
Experimental: For the in vitro assays, a stock solution (1% DMSO in the appropriate buffer with the tested compound diluted under sonification) was prepared from which several dilutions were made with the appropriate buffer. DMSO solution of the tested compound (stock solutions 10 mM) was incubated with sodium linoleate (0.1 mM) and 0.2 mL of soybean lipoxygenase solution (1/9 × 10^−4 w/v in saline) at room temperature. The test follows our previous published methods. […] Several concentrations were used to determine the IC50.

mushroom tyrosinase = mushroom tyrosinase (Agaricus bisporus, UniProt C7FF04); assay: Tyrosinase inhibition assay; assay type: biochemical; settings: L-Dopa substrate; for inhibition at 100 µM: read-out: ΤyrI% 100 μM (inhibition of mushroom tyrosinase)
Experimental: For the in vitro assays, a stock solution (1% DMSO in the appropriate buffer with the tested compound diluted under sonification) was prepared from which several dilutions were made with the appropriate buffer.

[2] = tested on: carrageenin-induced rat paw edema; assay: Inhibition of the carrageenin-induced rat paw edema; assay type: in vivo, Fisher 344 rats; settings: 0.0057 mmol/kg body weight i.p., 3.5 h after carrageenin
Experimental: For the estimation of anti-inflammatory potential of the tested compounds the rat carrageenin induced paw edema assay was employed as a model for acute inflammation. Indomethacin, as a reference drug, and our compounds were administered intraperitoneally in order to ensure systemic response via fast bioavailability, while carrageenin’s intradermal administration, as inflammatory agent, aimed to local response. The development of the edema induced by carrageenin has been described as a biphasic event. The early phase of the inflammatory response, lasting 0.5–1.5 h, is chiefly mediated by histamine and serotonin release inducing hyperalgesia, swelling and redness, while the later phase, lasting 3–6 h, is sustained presumably by prostaglandin release. This model reliably predicts the anti-inflammatory efficacy of the NSAIDs during the second phase, since non-steroidal anti-inflammatory drugs (NSAIDs) present weak activity in the first phase. Therefore, using this protocol we could evaluate our compounds as potential anti-inflammatory agents, as a result of inhibition of prostaglandin amplification.
The animals (Fisher 344 rats), which have been bred in our laboratory, were housed under standard conditions and received a diet of commercial food pellets and water ad libitum during the maintenance but they were entirely fasted during the experiment period. Both sexes were used while females pregnant were excluded. Each group was composed of 6–15 animals. Our studies were in accordance with recognized guidelines on animal experimentation (guidelines for the care and use of laboratory animals published by the Greek Government 160/1991, based on EU regulations 86/609). […]
Edema was induced in the right hind paw of the rats by the intradermal injection of 0.1 mL 2% carrageenin in water we followed our previous published method. […] The change in paw weight was compared with that in control animals (treated with water) and expressed as a percent inhibition of the edema CPE % values. […]

Sequence of mushroom tyrosinase (G1K3P4 entry or part of it): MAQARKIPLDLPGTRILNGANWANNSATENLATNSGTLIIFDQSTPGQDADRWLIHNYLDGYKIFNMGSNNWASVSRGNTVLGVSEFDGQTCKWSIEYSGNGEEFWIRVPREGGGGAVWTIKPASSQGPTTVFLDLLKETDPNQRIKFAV
Sequence of mushroom tyrosinase (C7FF04 1-392): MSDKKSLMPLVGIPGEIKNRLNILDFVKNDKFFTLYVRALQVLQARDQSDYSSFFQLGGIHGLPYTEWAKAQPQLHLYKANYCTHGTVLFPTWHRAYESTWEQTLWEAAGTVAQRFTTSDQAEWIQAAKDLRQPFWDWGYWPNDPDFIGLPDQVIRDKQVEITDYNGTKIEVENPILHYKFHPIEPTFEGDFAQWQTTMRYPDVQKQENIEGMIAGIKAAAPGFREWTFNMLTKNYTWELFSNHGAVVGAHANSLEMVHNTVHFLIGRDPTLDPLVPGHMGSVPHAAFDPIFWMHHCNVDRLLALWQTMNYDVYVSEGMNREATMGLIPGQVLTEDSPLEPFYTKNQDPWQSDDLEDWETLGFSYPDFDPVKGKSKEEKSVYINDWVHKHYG

Row | LOX % inhibition 100 μM (soybean lipoxygenase; 100 μM) [%] | inhibition at 100 µM (soybean lipoxygenase; 100 µM) [%] | inhibition at 100 µM (mushroom tyrosinase) [%] | melting point [°C] | LOX % inhibition 100 μM (soybean lipoxygenase; 100 µM) | ΤyrI% 100 μM (inhibition of mushroom tyrosinase) (mushroom tyrosinase) | IC50 (soybean lipoxygenase) [µM] | Compound | AAPH% 100 µM (anti-lipid peroxidation) [1] | CPE (%) inhibition of carrageenin-induced rat paw edema [2]
1 | 41 | < 50 | 13 | 181 to 182 | – | – | – | O=C(N/C(=C\c1cccs1)C(=O)N1CCCCC1)c1ccccc1 [Compound 5c, (Z)-N-(3-Oxo-3-(piperidin-1-yl)-1-(thiophen-2-yl)prop-1-en-2-yl)benzamide] | 72% | –
2 | 36 | < 50 | 5 | 156 to 159 | – | – | – | CCOC(=O)/C(=C/c1cccs1)NC(=O)c1ccccc1 [Compound 6c, (Z)-Ethyl 2-benzamido-3-(thiophen-2-yl)acrylate] | 59% | –
3 | 37 | < 50 | – | 135 to 137 | – | – | – | O=C(N/C(=C\c1cccc2ccccc12)C(=O)N1CCOCC1)c1ccccc1 [Compound 3d, (Z)-N-(3-morpholino-1-(naphthalen-1-yl)-3-oxoprop-1-en-2-yl)benzamide] | 91% | –
4 | – | – | – | 199 to 200 | no | no | – | O=C1OC(c2ccccc2)=N/C1=C\c1ccc(OCc2ccc(Br)cc2)cc1 [Compound 2b, (Z)-4-(4-((4-Bromobenzyl)oxy)benzylidene)-2-phenyloxazol-5(4H)-one] | 79% | –
5 | 39 | < 50 | 7 | 184 to 186 | – | – | – | O=C(N/C(=C\c1cccs1)C(=O)N1CCOCC1)c1ccccc1 [Compound 3c, (Z)-N-(3-morpholino-3-oxo-1-(thiophen-2-yl)prop-1-en-2-yl)benzamide] | 93% | –
6 | – | – | – | – | – | – | – | COc1ccc2c(c1)c(CC(=O)O)c(C)n2C(=O)c1ccc(Cl)cc1 [Indomethacin, reference compound] | – | 58 ** %
7 | – | – | – | – | no | no | – | O=C1OC(c2ccccc2)=N/C1=C\c1ccccc1 [Compound 2a, (Z)-4-Benzylidene-2-phenyloxazol-5(4H)-one] | 95% | –
8 | 49 | < 50 | 5 | 169 to 171 | – | – | – | O=C1OC(c2ccccc2)=N/C1=C\c1cccc2ccccc12 [Compound 2d, (Z)-4-(Naphthalen-1-ylmethylene)-2-phenyloxazol-5(4H)-one] | 81% | –
9 | – | – | 28 | 282 to 284 | – | – | 65 | O=C(N/C(=C\c1cccc2ccccc12)C(=O)N1CCN(C(=O)/C(=C/c2cccc3ccccc23)NC(=O)c2ccccc2)CC1)c1ccccc1 [Compound 4d, N,N′-((1Z,1′Z)-piperazine-1,4-diylbis(1-(naphthalen-1-yl)-3-oxoprop-1-ene-3,2-diyl))bisbenzamide] | 90% | –
10 | – | – | 3 | – | – | – | – | O=C1OC(c2ccccc2)=N/C1=C\c1ccco1 [Compound 2e, (Z)-4-(Furan-2-ylmethylene)-2-phenyloxazol-5(4H)-one] | 60% | –
11 | – | – | 16 | – | no | – | – | O=C1OC(c2ccccc2)=N/C1=C\c1cccs1 [Compound 2c, (Z)-2-Phenyl-4-(thiophen-2-ylmethylene)oxazol-5(4H)-one] | 91% | –
12 | – | – | – | 169 | no | – | – | O=C1OC(c2ccccc2)=N/C1=C\c1ccc(Oc2ccccc2)cc1 [Compound 2f, (Z)-4-(4-Phenoxybenzylidene)-2-phenyloxazol-5(4H)-one] | no | –
13 | – | – | 12 | 285 to 286 | – | – | 85 | O=C(N/C(=C\c1ccc(OCc2ccc(Br)cc2)cc1)C(=O)N1CCN(C(=O)/C(=C/c2ccc(OCc3ccc(Br)cc3)cc2)NC(=O)c2ccccc2)CC1)c1ccccc1 [Compound 4b, N,N′-((1Z,1′Z)-piperazine-1,4-diylbis(1-(4-((4-bromobenzyl)oxy)phenyl)-3-oxoprop-1-ene-3,2-diyl))-bis-benzamide] | 99% | –
14 | – | – | 17 | 293 to 295 | – | – | 88 | O=C(N/C(=C\c1ccco1)C(=O)N1CCN(C(=O)/C(=C/c2ccco2)NC(=O)c2ccccc2)CC1)c1ccccc1 [Compound 4e, N,N′-((1Z,1′Z)-piperazine-1,4-diylbis(1-(furan-2-yl)-3-oxoprop-1-ene-3,2-diyl))bisbenzamide] | 83% | –
15 | – | – | – | – | – | – | – | Cc1c(C)c2c(c(C)c1O)CCC(C)(C(=O)O)O2 (centres unmarked) [Trolox, reference compound] | 93% | –
